Patent US9511022B2, “Suspension and cake composition containing carbostyryl derivative and silicone oil and/or silicone oil derivative” (Otsuka Pharmaceutical Co., Ltd., priority 2010, dated 2016)

How the values were obtained:
[1] = Mean particle size of Compound (II)/silicone oil suspension by laser diffraction, with and without sonication; assay type: physicochemical; details: 20 weight % Compound (II) suspension after wet pulverization, before silicone oil addition
Description: Suspensions containing Compound (II) and silicone oil in the contents presented in Table 4 were prepared according to the following method. A 0.1% or 1% silicone oil emulsion prepared by diluting Dow Corning® 365, 35% Dimethicone NF Emulsion (produced by Dow Corning Corporation) in purified water was used as the silicone oil. A sodium carboxymethylcellulose/mannitol/sodium dihydrogenphosphate solution was used as a dispersion medium. The solids content of Compound (II) was adjusted to 10 to 20 weight %. No foaming occurred in any of the suspensions.
An aqueous suspension (200 mg Compound (II)/1.1 to 2 mL) containing Compound (II) and silicone oil was prepared as follows. Note that the Compound (II) suspension was prepared in the same manner as in Example 1 except that the pulverizing time using a high-pressure homogenizer was shortened.
A Compound (II) bulk powder was suspended in a dispersion medium at 20 weight %. […]
(§1) The mean particle size of the suspension prepared as described above was measured using a SALD-3000J or SALD-3100 Laser Diffraction Particle Size Analyzer (produced by Shimadzu Corporation). […]
(§2) Separately, the suspension was sonicated for 1 min with an ultrasonic wave generator attached to the particle size analyzer, and the mean particle size of the treated suspension was measured as described above.

[2] = Mean particle size of aripiprazole/silicone oil suspension by laser diffraction, with and without sonication; assay type: physicochemical; details: 20 weight % aripiprazole suspension after wet pulverization, before silicone oil addition
Description: Suspensions containing aripiprazole and silicone oil in the contents presented in Table 1 were prepared according to the following method. A 0.1% or 1% silicone oil emulsion prepared by diluting Dow Corning® 365, 35% Dimethicone NF Emulsion (produced by Dow Corning Corporation) in purified water was used as the silicone oil. A sodium carboxymethylcellulose/mannitol/sodium dihydrogenphosphate solution was used as a dispersion medium. The solids content of the aripiprazole was adjusted to about 10 to 20 weight %. No foaming occurred in any of the suspensions.
An aqueous suspension (200 mg aripiprazole/1.1 to 2 mL) containing aripiprazole (IM Depot) and silicone oil was prepared as follows.
Note that the aripiprazole suspension was prepared according to a wet pulverization method that uses a high-pressure homogenizer (see Japanese Patent Application No. 2007-200088 filed by Otsuka Pharmaceutical Co., Ltd.).
An aripiprazole hydrate bulk powder was suspended in a dispersion medium at 20 weight %. […]
as §1, §2

| SMILES | Mean primary particle size of the resulting suspension [1] [μm] | Mean primary particle size of the resulting suspension [2] [μm] |
| --- | --- | --- |
| O=c1ccc2ccc(OCCCCN3CCN(c4cccc5sccc45)CC3)cc2[nH]1 [Compound (II), 7-[4-(4-benzo[b]thiophen-4-yl-piperazin-1-yl)butoxy]-1H-quinolin-2-one] | 5.3 |  |
| O=C1CCc2ccc(OCCCCN3CCN(c4cccc(Cl)c4Cl)CC3)cc2N1 [aripiprazole, Aripiprazole] |  | 2.0 |
